Literature values, collected in paper PMC7953028 (Journal of Pesticide Science, 2021).

Key:
DmMet/DmTai complex = DmMet/DmTai complex (Drosophila melanogaster, UniProt O44118)
Chain of DmMet/DmTai complex (O44118 1-716): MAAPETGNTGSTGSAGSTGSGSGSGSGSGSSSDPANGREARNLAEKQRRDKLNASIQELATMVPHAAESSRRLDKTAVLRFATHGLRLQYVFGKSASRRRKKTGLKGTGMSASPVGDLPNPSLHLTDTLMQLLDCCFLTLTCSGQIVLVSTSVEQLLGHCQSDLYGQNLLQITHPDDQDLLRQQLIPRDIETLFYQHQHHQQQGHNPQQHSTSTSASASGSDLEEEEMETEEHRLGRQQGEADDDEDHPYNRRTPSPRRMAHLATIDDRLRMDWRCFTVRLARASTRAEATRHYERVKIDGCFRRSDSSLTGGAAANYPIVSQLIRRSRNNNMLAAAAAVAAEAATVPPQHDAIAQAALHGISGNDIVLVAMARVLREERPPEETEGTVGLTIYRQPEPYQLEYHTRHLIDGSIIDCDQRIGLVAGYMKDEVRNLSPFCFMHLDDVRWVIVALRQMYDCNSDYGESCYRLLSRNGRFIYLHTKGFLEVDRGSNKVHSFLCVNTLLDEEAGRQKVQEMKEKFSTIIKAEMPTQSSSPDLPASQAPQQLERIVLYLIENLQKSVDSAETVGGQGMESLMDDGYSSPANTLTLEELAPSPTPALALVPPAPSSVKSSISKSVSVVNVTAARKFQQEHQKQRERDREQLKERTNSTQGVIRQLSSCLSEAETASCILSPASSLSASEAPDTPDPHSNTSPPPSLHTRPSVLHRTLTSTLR
Chain of DmMet/DmTai complex (Q9VLD9 1-2026 partner): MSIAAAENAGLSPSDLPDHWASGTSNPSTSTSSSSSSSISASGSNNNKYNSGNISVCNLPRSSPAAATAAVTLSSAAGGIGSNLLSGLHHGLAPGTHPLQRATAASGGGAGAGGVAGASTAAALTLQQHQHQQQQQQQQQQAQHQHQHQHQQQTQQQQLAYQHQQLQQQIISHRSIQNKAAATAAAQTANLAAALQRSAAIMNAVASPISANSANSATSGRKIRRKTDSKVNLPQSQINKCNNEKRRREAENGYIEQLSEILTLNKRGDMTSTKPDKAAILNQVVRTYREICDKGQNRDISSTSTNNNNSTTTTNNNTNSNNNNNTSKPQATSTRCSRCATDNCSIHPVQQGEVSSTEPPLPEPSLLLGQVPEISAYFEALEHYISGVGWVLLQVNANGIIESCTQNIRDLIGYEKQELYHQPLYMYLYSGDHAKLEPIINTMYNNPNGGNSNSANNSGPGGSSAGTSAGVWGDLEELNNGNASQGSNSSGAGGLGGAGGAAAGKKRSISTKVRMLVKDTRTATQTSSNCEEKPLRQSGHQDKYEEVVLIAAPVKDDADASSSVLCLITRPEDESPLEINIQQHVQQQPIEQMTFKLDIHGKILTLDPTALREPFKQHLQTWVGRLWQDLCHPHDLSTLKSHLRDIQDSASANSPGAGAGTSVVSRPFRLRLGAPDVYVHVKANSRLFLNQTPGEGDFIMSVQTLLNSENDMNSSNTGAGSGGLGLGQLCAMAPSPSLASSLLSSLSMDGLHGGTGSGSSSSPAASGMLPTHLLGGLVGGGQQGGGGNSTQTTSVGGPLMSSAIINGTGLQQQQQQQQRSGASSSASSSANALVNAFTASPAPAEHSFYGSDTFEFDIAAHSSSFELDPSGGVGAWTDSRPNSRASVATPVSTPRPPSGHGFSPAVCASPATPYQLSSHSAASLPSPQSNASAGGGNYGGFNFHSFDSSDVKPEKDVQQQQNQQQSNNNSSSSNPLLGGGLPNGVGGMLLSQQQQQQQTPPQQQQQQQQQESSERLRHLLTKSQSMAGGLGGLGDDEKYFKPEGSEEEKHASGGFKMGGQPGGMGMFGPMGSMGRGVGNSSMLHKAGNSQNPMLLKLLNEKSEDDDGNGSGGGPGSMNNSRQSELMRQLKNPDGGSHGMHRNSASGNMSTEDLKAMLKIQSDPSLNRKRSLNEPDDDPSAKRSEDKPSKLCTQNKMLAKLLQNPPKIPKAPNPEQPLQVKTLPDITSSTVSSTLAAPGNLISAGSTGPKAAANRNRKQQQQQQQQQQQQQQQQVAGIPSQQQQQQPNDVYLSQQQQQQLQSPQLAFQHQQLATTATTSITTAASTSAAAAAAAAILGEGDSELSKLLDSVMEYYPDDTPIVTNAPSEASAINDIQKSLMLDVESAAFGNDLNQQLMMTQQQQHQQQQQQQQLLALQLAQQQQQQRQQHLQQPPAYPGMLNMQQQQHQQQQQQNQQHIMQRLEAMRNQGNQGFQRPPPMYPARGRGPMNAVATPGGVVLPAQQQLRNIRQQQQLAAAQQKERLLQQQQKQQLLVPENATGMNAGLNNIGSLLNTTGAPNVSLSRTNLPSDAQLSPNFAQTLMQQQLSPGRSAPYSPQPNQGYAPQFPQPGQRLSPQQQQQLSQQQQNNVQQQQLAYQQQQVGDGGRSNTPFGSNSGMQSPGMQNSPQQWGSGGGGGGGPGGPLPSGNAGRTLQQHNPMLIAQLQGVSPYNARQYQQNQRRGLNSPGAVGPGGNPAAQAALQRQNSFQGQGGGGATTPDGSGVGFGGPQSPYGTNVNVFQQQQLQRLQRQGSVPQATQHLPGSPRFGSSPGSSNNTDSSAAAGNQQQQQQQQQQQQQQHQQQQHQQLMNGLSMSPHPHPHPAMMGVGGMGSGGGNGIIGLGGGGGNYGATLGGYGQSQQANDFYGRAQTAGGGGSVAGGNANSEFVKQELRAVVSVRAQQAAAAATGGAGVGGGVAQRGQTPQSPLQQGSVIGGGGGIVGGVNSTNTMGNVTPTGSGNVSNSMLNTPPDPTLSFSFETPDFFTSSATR

Compound | log P | activity in reporter system relative to natural JHs (DmMet/DmTai complex)
COC(C)(C)CCC[C@H](C)C/C=C/C(C)=C/C(=O)OC(C)C (racemic) [methoprene] | 5.00 | –
c1ccc(Oc2ccc(OCCOc3nccs3)cc2)cc1 [Compound 1, 2-[2-(4-phenoxyphenoxy)ethoxy]thiazole] | – | outperformed natural JHs
C(#Cc1ccccn1)COc1ccc(Oc2ccccc2)cc1 [Compound 2, 2-[3-(4-phenoxyphenoxy)-1-propyn-1-yl)pyridine] | – | outperformed natural JHs
